Patent publication US10420810B2, “Traditional Chinese medicine composition for the treatment of diabetic retinopathy” (priority 2015, dated 2019)

Tests used:
Assay type in all cases: in vivo, rat
[1] = system: retinal capillaries; experiment: Microscopic observation of retinal vascular digest preparation, STZ diabetic rats (Experiment 3); settings: 9 months, PAS staining, result in words
Description: (§1) 48 SPF-grade SD rats, male, 6 weeks old, (220±20) g in weight, were purchased from Huafukang Biotechnology Co., Ltd. After one-week's adaptive feeding, the rats were randomized into the modeling group (36 rats) and normal group (12 rats). The rats were fasted for 12 hours before modeling and given 1% STZ solution according to the body weight of 60 mg/kg via one intraperitoneal injection to induce experiment diabetic rat models. Rats in the normal group were injected with normal saline of the same volume. Blood glucose was monitored 72 hours later, blood was collected via caudal vein, and the modeling was deemed as successful when the blood glucose was ≥16.7 mmol/L for 3 consecutive days; after successful modeling, rats were randomized into the model group (12 rats), TCM composition experiment group (abbreviated as the experiment group, containing 12 rats) and Doxium group (abbreviated as the control group, containing 12 rats). Rats in the experiment group and control group were dosed on the next day after successful modeling. The administered dose of the experiment group was 10 ml/(kg·d) and that of the control group was 250 mg/(kg·d), with the Doxium powders dissolved in 2 mL distilled water. […] In the experiment period, all the rats were given food and drinking water at regular times each day; the changes in the body weight and blood glucose of rats were monitored monthly. […]

[2] = system: iris vessels of diabetic rats; experiment: Diameter of iris vessels in STZ diabetic rats; settings: 300 days, result in words
Description: (§2) The modeling was the same as that of Experiment 2. After successful modeling, diabetic rats were randomized into the model group (20 rats), experiment group (30 rats, given the TCM composition prepared according to Experiment 1), control group (Doxium group, 20 rats) and normal group (12 rats). The experiment lasted 300 days. 1.2 Observation Methods and Outcome Measures: The iris blood flow velocity, diameter of iris vessels, density of iris microvessels, endothelial structure of iris microvessels, permeability of iris microvessels and iris unit area blood perfusion volume were observed by the iris vascular perfusion scan and iris fluorescein angiography.

[3] = system: iris vessels of diabetic rats; experiment: Iris blood flow velocity in STZ diabetic rats; settings: x ± s
Description: as §2

[4] = system: retina; experiment: HE staining of retinal paraffin sections, STZ diabetic rats (Experiment 3); settings: 9 months, result in words
Description: as §1

[5] = system: iris vessels of diabetic rats; experiment: Iris unit area blood perfusion volume (laser Doppler scanning) in STZ diabetic rats; settings: x ± s
Description: as §2

[6] = system: VEGF; experiment: Immunohistochemistry of retinal paraffin sections: whole-layer retinal VEGF expression (Experiment 3); settings: STZ diabetic rats, 9 months, x ± s
Description: as §1

[7] = system: retina; experiment: Retinal electron microscopy, STZ diabetic rats (Experiment 3); settings: 9 months, result in words
Description: as §1

SMILES: O=S(=O)(O)c1cc(O)ccc1O [Doxium]
- Microscopic observation of retinal vascular digest preparation [1]: retinal microvascular changes were significantly prevented or delayed
- Diameter of iris vessels compared to the model group [2]: no statistically significant difference between the Doxium group and model group
- Blood Flow Velocity Index, Post-treatment ([3]; 300 days): 3.25 ± 0.81 min
- Blood Flow Velocity Index, Pre-treatment ([3]; baseline): 1.07 ± 0.07 min
- Light microscopic observation of HE-stained retinal paraffin sections [4]: the retinal net structure was loose, internal and external granular layers were arranged in a disordered manner, capillaries were dilated, and interstitial edema can be noted
- Iris Unit Area Blood Perfusion Volume, Post-treatment ([5]; 300 days): 133.71 ± 6.89
- Iris Unit Area Blood Perfusion Volume, Pre-treatment ([5]; baseline): 607.45 ± 194.19
- Whole-layer Retinal VEGF Expression (Gray-scale values), Mean Optical Density Value [6]: 0.43 ± 0.09
- Retinal ultrastructure observation (electron microscopy) [7]: the vascular walls of retinal capillaries were still regular and smooth, basement membranes were thickened
